Measured values: PMC9179882 (Cancers, 2022)

Key:
SW480 cells = assay: Immunofluorescence of nucleolar proteins (NCL, FBL, POLR1A); assay type: cell-based, human; conditions: SW480, GA IC50 for 6 h
Procedure: Cells were seeded on 13 mm circular coverslips and placed in 24-well plates. After exposure to different experimental conditions, fixation was performed with 4% (v/v) paraformaldehyde (P6148, Merck, Darmstadt, Germany) for 10 min at room temperature (RT), permeabilization with 0.1% (v/v) Triton-X100 (T8787, Merck, Darmstadt, Germany) for 10 min and blocking with 10% bovine serum albumin (A7906, Merck, Darmstadt, Germany) containing 0.5% (v/v) Triton-X100 for 30 min at RT. Primary antibodies were incubated for 1 h at RT and secondary antibodies for 30 min at 4 °C in darkness. Finally, all coverslips were mounted onto slides (J2800AMNZ, Thermo scientific, Waltham, MA, USA), including DAPI (4′,6-diamidino-2-phenylindole) for nuclear counterstain. Images were acquired on a Confocal Zeiss LSM 710 inverted microscope with a 63× immersion objective. In a different manner, BG4 immunofluorescence was conducted as previously described. BG4 mean nuclear fluorescence intensity was quantified using Fiji software (N > 250). Antibodies used are listed in Supplementary Table S1.
GA is widely present in the plant kingdom and largely found in different food sources. According to its cytotoxic activity (shown above), cell cycle analysis was performed on SW480 cells by FACS with propidium iodide staining (Figure 1C). After GA IC50 treatment for 24 h, the frequency of cells at different stages of the cell cycle changed with respect to non-treated cells (45.34% of cells at G1, 34.16% at S, 7.65% at G2/M). […] To explore this hypothesis, we determined the intracellular localization of nucleolar proteins by immunofluorescence of SW480 cells treated with GA IC50 for 6 h because we had previously observed that some DNA-binding compounds affect nucleolar organization. In particular, we analyzed three proteins that are indicative of nucleolus status, such as nucleolin (NCL), fibrillarin (FBL), and Pol I catalytic subunit A (POLR1A) (Figure 1D).

CRL1790 cells = assay: Resazurin cytotoxic assay, non-tumoral CRL1790; assay type: cell-based; conditions: Homo sapiens, Epithelial cell, CRL1790 non-tumoral colon epithelial cells, 48 h, mean ± SD
Procedure: (§1) CRL1790, SW480 and SW620 cell lines were purchased from American Type Culture Collection (ATCC). Cells were cultured at 37 °C with 5% CO2 atmosphere in medium supplemented with 10% fetal bovine serum (10270106, Gibco, Waltham, MA, USA), 10 mg/mL penicillin, 10 mg/mL streptomycin, […] amphotericin, and 0.03% L-Glutamine as recommended by the ATCC. MEM medium (M5650, Merck, Darmstadt, Germany) was used for non-tumoral CRL1790, and RPMI 1640 medium (L0501-500, Biowest, Nuaillé, France) was used for both tumoral SW480 and SW620 cell lines.
(§2) Cytotoxic activity was screened using Resazurin Fluorimetric Assay (R7017, Merck, Darmstadt, Germany), according to the manufacturer’s protocol. Cells seeded into 96-well plates (8 × 10^3 cells/well) were treated for 48 h with phenolic compounds at increasing concentrations from 2 × 10^−5 µM to 100 µM. Negative control with vehicle DMSO was included. Fluorescence was determined using Nanoquant Infinite M200 Pro multi-plate reader (Tecan). Half-maximal inhibitory concentration (IC50) values were determined in triplicate by non-linear regression with Graphpad (Prism).
(§3) Natural products such as phenolic compounds have recently attracted significant attention for their anticancer properties. […] We used three different cell lines to mimic CRC progression. In particular, CRL1790 are colon epithelial cells simulating the non-tumoral stage. In addition, SW480 is Dukes’ type B colorectal adenocarcinoma cells representing the primary tumor. Finally, SW620 constitutes Dukes’ type C colorectal adenocarcinoma derived from metastasic site cells to mimic the most aggressive metastasic stage. […] Cytotoxic potency upon 48 h treatment with phenolic compounds was examined by determination of half-maximal inhibitory concentration (IC50) values using the Resazurin method (Table 1). Only GA inhibited cell growth in SW480 and SW620 at clinically-relevant concentrations (IC50 values lower than 30 µM).

SW620 cells = assay: Resazurin cytotoxic assay, metastatic SW620; assay type: cell-based, human; conditions: 48 h, mean ± SD
Procedure: as §1, §2, §3

`O=C(O)c1cc(O)c(O)c(O)c1` [Gallic acid, 3,4,5-trihydroxybenzoic acid] was tested, and the “nucleolar localization of POLR1A” value (SW480 cells) was “significant changes in POLR1A were not observed”, the “nucleolar localization of fibrillarin (FBL)” value (SW480 cells) was “segregation of FBL to nucleolar periphery caps” and the “nucleolar localization of nucleolin (NCL)” value (SW480 cells) was “translocation of NCL from the nucleolus to the nucleoplasm”. The IC50 (CRL1790 cells) was > 100 µM, the IC50 (SW620 cells) was 11.8 ± 1.54 µM and the IC50 (SW620 cells; listed as GA) was < 30 µM.
